Source: the supplement of paper PMC10307832

Experiments:
Assay in all cases: relative viability (nuclei count vs DMSO), 5 days (fraction); higher = more cells survive
NCI-H358 = system: NCI-H358
Method in brief: (§1)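 After 5 days of treatment, lung cancer cells in 1536-well plates were fixed and stained in a single step (final 0.05% Triton X-100, 1% formaldehyde, 1 ug/ml Hoechst) and their nuclei counted on 4× images. Treatment had been applied by pin tool the day after seeding as one drug alone or as a fixed anchor-drug dose with five library-drug doses (not always all listed) in √10 steps. Relative viability is the nuclei count of treated wells divided by that of vehicle wells, and values are medians of duplicate plates.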

EPLC-272H = system: EPLC-272H
Method in brief: as §1

NCI-H2085 = system: NCI-H2085
Method in brief: as §1

HOP-62 = system: HOP-62
Method in brief: as §1

NCI-H3122 = system: NCI-H3122
Method in brief: as §1

NCI-H2023 = system: NCI-H2023
Method in brief: as §1

NCI-H2126 = system: NCI-H2126
Method in brief: as §1

CAL-12T = system: CAL-12T
Method in brief: as §1

LXF-289 = system: LXF-289
Method in brief: as §1

NCI-H1666 = system: NCI-H1666
Method in brief: as §1

NCI-H1915 = system: NCI-H1915
Method in brief: as §1

NC(=O)Nc1cc(-c2cccc(F)c2)sc1C(=O)N[C@H]1CCCNC1 [AZD7762] + C[C@]1(O)C[C@@H](c2nc(-c3ccc4ccc(-c5ccccc5)nc4c3)c3c(N)nccn32)C1 [Linsitinib] (partner 1 µM)
relative viability (NCI-H358; first compound 0.01 µM): 0.695 | relative viability (NCI-H358; first compound 0.03162 µM): 0.745 | relative viability (NCI-H358; first compound 0.1 µM): 0.711 | relative viability (NCI-H358; first compound 0.3162 µM): 0.617 | relative viability (NCI-H358; first compound 1 µM): 0.42 | relative viability (EPLC-272H; first compound 0.01 µM): 1.15 | relative viability (EPLC-272H; first compound 0.03162 µM): 1.28 | relative viability (EPLC-272H; first compound 0.1 µM): 1.23 | relative viability (EPLC-272H; first compound 0.3162 µM): 1.19 | relative viability (EPLC-272H; first compound 1 µM): 0.871 | relative viability (NCI-H2085; first compound 0.01 µM): 1.03 | relative viability (NCI-H2085; first compound 0.03162 µM): 0.885 | relative viability (NCI-H2085; first compound 0.1 µM): 0.874 | relative viability (NCI-H2085; first compound 0.3162 µM): 0.948 | relative viability (NCI-H2085; first compound 1 µM): 0.693 | relative viability (HOP-62; first compound 0.01 µM): 1.04 | relative viability (HOP-62; first compound 0.03162 µM): 1.09 | relative viability (HOP-62; first compound 0.1 µM): 1.32 | relative viability (HOP-62; first compound 0.3162 µM): 0.891 | relative viability (HOP-62; first compound 1 µM): 0.987 | relative viability (NCI-H3122; first compound 0.01 µM): 1.02 | relative viability (NCI-H3122; first compound 0.03162 µM): 0.986 | relative viability (NCI-H3122; first compound 0.1 µM): 1.05 | relative viability (NCI-H3122; first compound 0.3162 µM): 0.868 | relative viability (NCI-H3122; first compound 1 µM): 1.12 | relative viability (NCI-H2023; first compound 0.01 µM): 0.619 | relative viability (NCI-H2023; first compound 0.03162 µM): 0.485 | relative viability (NCI-H2023; first compound 0.1 µM): 0.387 | relative viability (NCI-H2023; first compound 0.3162 µM): 0.21 | relative viability (NCI-H2023; first compound 1 µM): 0.0864 | relative viability (NCI-H2126; first compound 0.01 µM): 0.711 | relative viability (NCI-H2126; first compound 0.03162 µM): 0.758 | relative viability (NCI-H2126; first compound 0.1 µM): 0.763 | relative viability (NCI-H2126; first compound 0.3162 µM): 0.706 | relative viability (NCI-H2126; first compound 1 µM): 0.805 | relative viability (CAL-12T; first compound 0.01 µM): 0.91 | relative viability (CAL-12T; first compound 0.03162 µM): 0.725 | relative viability (CAL-12T; first compound 0.1 µM): 0.984 | relative viability (CAL-12T; first compound 0.3162 µM): 0.844 | relative viability (CAL-12T; first compound 1 µM): 0.288 | relative viability (LXF-289; first compound 0.01 µM): 0.957 | relative viability (LXF-289; first compound 0.03162 µM): 0.938 | relative viability (LXF-289; first compound 0.1 µM): 1.01 | relative viability (LXF-289; first compound 0.3162 µM): 1.03 | relative viability (LXF-289; first compound 1 µM): 1.06 | relative viability (NCI-H1666; first compound 0.01 µM): 0.845 | relative viability (NCI-H1666; first compound 0.03162 µM): 1.02 | relative viability (NCI-H1666; first compound 0.1 µM): 1.05 | relative viability (NCI-H1666; first compound 0.3162 µM): 0.868 | relative viability (NCI-H1666; first compound 1 µM): 0.565 | relative viability (NCI-H1915; first compound 0.01 µM): 1.09 | relative viability (NCI-H1915; first compound 0.03162 µM): 1.1 | relative viability (NCI-H1915; first compound 0.1 µM): 1.19 | relative viability (NCI-H1915; first compound 0.3162 µM): 1.2 | relative viability (NCI-H1915; first compound 1 µM): 1.06
